From ChEMBL document CHEMBL2434943, “Elaboration of thorough simplified vinca alkaloids as antimitotic agents based on pharmacophore similarity” (Eur J Med Chem, 2013)
Where a name gives a salt, the structure may show the parent alone. The source made the active and inactive calls. No cut-off for these calls is given here.

What was measured:
[1] = tested on: MCF7; test: Cytotoxicity against human MCF7 cells assessed as growth inhibition after 72 hrs by MTT assay; type: functional, cell-based; settings: MCF7, 72 h
[2] = Cytotoxicity against KM mouse splenic lymphocytes assessed as growth inhibition up to 50 uM after 72 hrs by MTT assay; settings: splenic lymphocyte
[3] = tested on: HepG2; test: Cytotoxicity against adriamycin-resistant human HepG2 cells assessed as growth inhibition after 72 hrs by MTT assay; type: functional, cell-based; settings: HepG2, 72 h
[4] = tested on: MDA-MB-231; test: Cytotoxicity against human MDA-MB-231 cells assessed as growth inhibition after 72 hrs by MTT assay; type: functional, cell-based; settings: MDA-MB-231, 72 h
[5] = tested on: HepG2; test: Cytotoxicity against human HepG2 cells assessed as growth inhibition after 72 hrs by MTT assay; type: functional, cell-based; settings: HepG2, 72 h
[6] = tested on: K562; test: Cytotoxicity against human K562 cells assessed as growth inhibition after 72 hrs by MTT assay; type: functional, cell-based; settings: K562, 72 h
[7] = Cytotoxicity against KM mouse splenic lymphocytes assessed as growth inhibition after 72 hrs by MTT assay; settings: Splenic lymphocyte
[8] = target: Tubulin (Homo sapiens) (UniProt P68371+Q9H4B7+P0DPH7+P68366+Q13509+Q71U36+P04350+Q3ZCM7+P07437+P68363+Q9BQE3+Q6PEY2+Q13885+Q9BVA1+Q9BUF5); test: Inhibition of tubulin polymerization (unknown origin) after 90 mins; type: protein-complex assay
[9] = tested on: HepG2; test: Antimitotic activity in human HepG2 cells assessed as cell morphological changes at 18 nM after 12 hrs by DAPI staining-based laser scanning confocal microscopic analysis; type: functional

Structure (SMILES) | IC50 [1] | Activity [2] | IC50 [3] | IC50 [4] | IC50 [5] | IC50 [6] | IC50 [7] | inhibition [8] | Activity [9]
CC1(C)C(/C=C/c2c[nH]c3cccc(C#N)c23)=Nc2ccccc21 | 8.95 µM | Non-toxic | 3.18 µM | 18.8 µM | 9.22 µM | 15.8 µM |  |  | 
CN(C)c1ccc(/C=C/C2=Nc3ccccc3C2(C)C)cc1 | 8.1 µM |  | 22.1 µM | 15.1 µM | 17.9 µM | 25.7 µM |  |  | 
CC[C@]1(O)C[C@@H]2CN(CCc3c([nH]c4ccccc34)[C@@](C(=O)OC)(c3cc4c(cc3OC)N(C)[C@H]3[C@@](O)(C(=O)OC)[C@H](OC(C)=O)[C@]5(CC)C=CCN6CC[C@]43[C@@H]65)C2)C1 [VINBLASTINE] |  |  |  |  |  |  | 0.0016 µM |  | 
CC1(C)C(/C=C/c2ccc(Br)cc2)=Nc2ccccc21 | 5.26 µM |  | 9.92 µM | 5.16 µM | 15.6 µM | 20.2 µM |  |  | 
Cc1ccc2[nH]cc(/C=C/C3=Nc4ccccc4C3(C)C)c2c1 | 15.9 µM |  | 6.13 µM | 14.6 µM | 18.7 µM | 21.2 µM |  |  | 
COc1ccccc1/C=C/C1=Nc2ccccc2C1(C)C | 5.13 µM |  | 12.6 µM | 10.7 µM | 22 µM | 22.9 µM |  |  | 
COc1ccc(/C=C/C2=Nc3ccccc3C2(C)C)cc1 | 10.4 µM |  | 47 µM | 15.6 µM | 20.8 µM | 19.9 µM |  |  | 
Cc1ccc(/C=C/C2=Nc3ccccc3C2(C)C)cc1 | 13.2 µM |  | > 50 µM | 22 µM | 43.9 µM | 26.1 µM |  |  | 
CCC1=C[C@@H]2CN3CCc4c([nH]c5ccccc45)[C@@](C(=O)OC)(C2)[C@@H]13 | > 50 µM |  | > 50 µM | > 50 µM | > 50 µM | > 50 µM |  |  | 
Cc1cccc(/C=C/C2=Nc3ccccc3C2(C)C)c1 | 8.31 µM |  | 10.2 µM | 10.1 µM | 16.4 µM | 20.7 µM |  |  | 
CC1(C)C(/C=C/c2c[nH]c3cc(F)ccc23)=Nc2ccccc21 | 3.47 µM |  | 14.9 µM | 24.4 µM | 9.87 µM | 20.2 µM |  |  | 
Cc1c(/C=C/C2=Nc3ccccc3C2(C)C)c2ccccc2n1C | 17.1 µM |  | 3.34 µM | 38.5 µM | 35.9 µM | 23.2 µM |  |  | 
CC1(C)C(/C=C/c2c[nH]c3c([N+](=O)[O-])cccc23)=Nc2ccccc21 | 11.2 µM |  | 4 µM | 26.1 µM | 16.8 µM | 21 µM |  |  | 
COc1cc(/C=C/C2=Nc3ccccc3C2(C)C)cc(OC)c1OC | 1.76 µM | Non-toxic | 10.8 µM | 4.13 µM | 12.7 µM | 15.3 µM |  |  | 
CC1(C)C(/C=C/c2cccc(C(F)(F)F)c2)=Nc2ccccc21 | 2.13 µM |  | 9.54 µM | 3.2 µM | 11.7 µM | 9.83 µM | 36.3 µM |  | 
COc1ccc2[nH]cc(/C=C/C3=Nc4ccccc4C3(C)C)c2c1 | 7.05 µM |  | 23.4 µM | 14 µM | 18.5 µM | 16.9 µM |  |  | 
CC1(C)C(/C=C/c2ccccc2[N+](=O)[O-])=Nc2ccccc21 | 1.75 µM |  | 9.74 µM | 3.77 µM | 12.7 µM | 13 µM |  |  | 
CC1(C)C(/C=C/c2c[nH]c3ccc(Br)cc23)=Nc2ccccc21 | 21 µM |  | 9.1 µM | 21.8 µM | 21.5 µM | 20.1 µM |  |  | 
Cc1[nH]c2ccccc2c1/C=C/C1=Nc2ccccc2C1(C)C | 6.25 µM |  | 4.41 µM | 32.6 µM | 15.4 µM | 22.7 µM |  |  | 
CCC12C=CCN3CC[C@@]4(c5ccc(OC)cc5N(C)[C@H]4[C@@](O)(C(=O)OC)[C@@H]1OC(C)=O)[C@@H]32 (stereo partly specified) [VINDOLINE] | > 50 µM |  | > 50 µM | > 50 µM | > 50 µM | > 50 µM |  |  | 
CC[C@]1(O)C[C@@H]2CN(CCc3c([nH]c4ccccc34)[C@@](C(=O)OC)(c3cc4c(cc3OC)N(C)[C@H]3[C@@](O)(C(=O)OC)[C@H](OC(C)=O)[C@]5(CC)C=CCN6CC[C@]43[C@@H]65)C2)C1 [VINBLASTINE SULFATE] | 0.007 µM |  | 0.056 µM | 0.0083 µM | 0.019 µM | 0.016 µM |  |  | 
CC[C@]1(O)C[C@@H]2CN(CCc3c([nH]c4ccccc34)[C@@](C(=O)OC)(c3cc4c(cc3OC)N(C)[C@H]3[C@@](O)(C(=O)OC)[C@H](OC(C)=O)[C@]5(CC)C=CCN6CC[C@]43[C@@H]65)C2)C1 |  |  |  |  |  |  |  | Active | Active
CC1(C)C(/C=C/c2c[nH]c3ccccc23)=Nc2ccccc21 | 3.88 µM | Non-toxic | 12.2 µM | 11.6 µM | 17.9 µM | 23 µM |  |  | 
CC1(C)C(/C=C/c2ccc([N+](=O)[O-])cc2)=Nc2ccccc21 | 0.96 µM |  | 2.49 µM | 2.01 µM | 5.55 µM | 4.32 µM | 20.7 µM |  | 
CCN(CC)c1ccc(/C=C/C2=Nc3ccccc3C2(C)C)cc1 | 11.8 µM |  | 15.1 µM | 16.1 µM | 22.9 µM | 28.2 µM |  |  | 
COc1cccc(/C=C/C2=Nc3ccccc3C2(C)C)c1 | 2.19 µM |  | 9.94 µM | 3.1 µM | 11.4 µM | 9.64 µM |  | Active | 
COc1ccc(/C=C/C2=Nc3ccccc3C2(C)C)cc1OC | 12 µM |  | 28.6 µM | 9.11 µM | 35 µM | 37.1 µM |  |  | 
CC1(C)C(/C=C/c2ccc(C(F)(F)F)cc2)=Nc2ccccc21 | 1.45 µM |  | 7.91 µM | 2.63 µM | 9.49 µM | 8.87 µM | 35.4 µM | Active | 
Cn1cc(/C=C/C2=Nc3ccccc3C2(C)C)c2ccccc21 | 12.6 µM |  | 18.7 µM | 22.4 µM | 39.4 µM | 20.8 µM |  |  | 
CC1(C)C(/C=C/c2c[nH]c3cc(Cl)ccc23)=Nc2ccccc21 | 19 µM |  | 9.98 µM | 20.1 µM | 18.1 µM | 13 µM |  |  | 
